inhibition, IC50 and Activity data for eight compounds are collected here from ChEMBL document CHEMBL4052778, “Bioactive polyprenylated benzophenone derivatives from the fruits extracts of Garcinia xanthochymus” (Bioorg Med Chem Lett, 2017).

Assay [1] concerns the target Signal transducer and activator of transcription 3 (Homo sapiens) (UniProt P40763). The assay can be described thus: Inhibition of STAT3 activity in human U251MG cells assessed as downregulation of STAT3 phosphorylation at Tyr705 residue at 5 uM up to 24 hrs by Western blot analysis. It is filed as cell-based.
Assay [2] concerns U-251. The assay is described as follows: Cytotoxicity against human U251MG cells assessed as reduction in cell viability after 72 hrs by CyQuant dye-based assay. It is filed as functional.
In a further assay the test system is NIH3T3. The assay can be described thus: Cytotoxicity against mouse NIH/3T3 cells assessed as reduction in cell viability after 72 hrs by CyQuant dye-based assay.
The next assay concerns MDA-MB-231. The assay is described as follows: Cytotoxicity against human MDA-MB-231 cells assessed as reduction in cell viability after 72 hrs by CyQuant dye-based assay. The format is functional.
Assay [3] deals with Signal transducer and activator of transcription 3 (Homo sapiens) (UniProt P40763). The assay can be described thus: Inhibition of STAT3 DNA binding activity in human U251MG nuclear extract at 5 uM preincubated for 30 mins followed by addition of [32P]hSIE measured up to 24 hrs by electrophoretic mobility shift assay.
Assay [4] deals with U-251. The assay is described as follows: Antimigratory activity in human U251MG cells at 2.5 to 5.0 uM after 18 hrs by inverted fluorescence microscopic method-based wound-healing assay. It is filed as functional, cell-based.
The mark [5] stands for this setting: Homo sapiens, U-251, 72 h, read-out: IC50.

Calls of active or inactive are those of the source. No cut-off for these calls is given here.

Sequence of Signal transducer and activator of transcription 3 (Homo sapiens) (P40763 whole entry): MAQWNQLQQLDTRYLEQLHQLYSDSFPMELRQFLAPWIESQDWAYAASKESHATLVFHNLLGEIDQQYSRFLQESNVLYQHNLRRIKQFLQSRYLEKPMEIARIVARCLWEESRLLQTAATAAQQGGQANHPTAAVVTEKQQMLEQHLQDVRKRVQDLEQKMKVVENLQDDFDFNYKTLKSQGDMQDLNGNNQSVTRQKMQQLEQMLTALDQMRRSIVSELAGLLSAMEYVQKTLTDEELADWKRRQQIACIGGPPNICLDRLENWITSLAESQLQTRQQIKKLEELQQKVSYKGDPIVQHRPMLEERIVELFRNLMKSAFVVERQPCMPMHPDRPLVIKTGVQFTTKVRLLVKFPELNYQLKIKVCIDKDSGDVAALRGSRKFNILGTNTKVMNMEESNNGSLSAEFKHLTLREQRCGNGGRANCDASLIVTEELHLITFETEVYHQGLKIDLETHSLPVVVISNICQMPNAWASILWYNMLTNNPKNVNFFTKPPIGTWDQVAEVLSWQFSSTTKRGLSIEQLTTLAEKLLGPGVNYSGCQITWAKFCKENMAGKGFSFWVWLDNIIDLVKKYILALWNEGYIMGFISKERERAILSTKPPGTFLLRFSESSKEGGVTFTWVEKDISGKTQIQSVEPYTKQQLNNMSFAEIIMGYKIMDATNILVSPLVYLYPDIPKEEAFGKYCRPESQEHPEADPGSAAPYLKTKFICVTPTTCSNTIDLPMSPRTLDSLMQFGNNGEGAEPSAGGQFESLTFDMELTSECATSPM

Regarding `C=C(C)CC[C@H](C[C@]12C[C@H](CC=C(C)C)C(C)(C)[C@](CC=C(C)C)(C(=O)C(C(=O)c3ccc(O)c(O)c3)=C1O)C2=O)C(=C)C`, the inhibition result in assay [1] is “Active”.
As for `C=C(C)CCC(CC12CC3C(C=C(C)C)C(C(=O)c4ccc(O)c(O)c4)(CC(CC=C(C)C)(C1=O)C3(C)C)C2=O)C(=C)C` (centres undefined), the values for the 50% inhibitory concentration (IC50) result in the assay on U-251 [2] (u-251), with NIH3T3 and with MDA-MB-231 were “Not Active”, “Non-Toxic” and “Not Active”, respectively.
For the compound `CC(C)=CC[C@H]1C[C@]23C[C@@H]4CC=C(C)C[C@]4(C)C[C@@]2(O)c2c(oc4cc(O)c(O)cc4c2=O)[C@@](CC=C(C)C)(C3=O)C1(C)C`, the IC50 in the assay on U-251 [2] (setting [5]) is 1.8 µM; with NIH3T3, “Non-Toxic”; with MDA-MB-231, “Not Active”.
As for `CC(C)=CC[C@H]1C[C@@]23C[C@@H](CC=C(C)C)C(C)(C)[C@@](CC=C(C)C)(C(=O)C(C(=O)c4ccc(O)c(O)c4)=C2OC1(C)C)C3=O` [CAMBOGIN], the IC50 in the assay on U-251 [2] (setting [5]) was 2.8 µM; with NIH3T3, “Non-Toxic”; in the assay with MDA-MB-231 it was “Not Active”.
In the case of `C=C(C)[C@H]1C[C@@]23C[C@@H](CC=C(C)C)C(C)(C)[C@@](CC=C(C)C)(C(=O)C(C(=O)c4ccc(O)c(O)c4)=C2O[C@@H]1C=C(C)C)C3=O`, the IC50 is 3.7 µM in the assay on U-251 [2] (setting [5]), “Non-Toxic” with NIH3T3 and “Not Active” in the assay on MDA-MB-231. Besides, in assay [3], the inhibition result is “Active”. The result in the assay on U-251 [4] was Active.
As to `C=C(C)CC[C@H]1C[C@]23C[C@H](CC=C(C)C)C(C)(C)[C@](CC=C(C)C)(C2=O)c2oc4cc(O)c(O)cc4c(=O)c2[C@]3(O)CC1=C`, the concentration for half-maximal inhibition (IC50) is 3.5 µM in the assay with U-251 [2] (setting [5]), “Non-Toxic” in the assay on NIH3T3 and “Not Active” with MDA-MB-231.
With `CC(C)=CC[C@@H]1C[C@]23C[C@H](CC=C(C)C)C(C)(C)[C@](CC=C(C)C)(C(=O)C(C(=O)c4ccc(O)c(O)c4)=C2OC1(C)C)C3=O` [ISOXANTHOCHYMOL], the IC50 in the assay with U-251 [2] (setting [5]) was 6 µM; in the assay with NIH3T3 it was “Non-Toxic”; with MDA-MB-231 it was “Not Active”.
In the same order, the values of `C=C(C)C(CC=C(C)C)C[C@@]12C[C@@H](CC=C(C)C)C(C)(C)[C@@](CC=C(C)C)(C(=O)C(C(=O)c3cccc(O)c3)=C1O)C2=O` (some centres undefined) are 1.3 µM, “Non-Toxic” and “Not Active”.
